Each structure is given as a SMILES string.

This note sets out measurements from patent US8501755B2, “Tetrahydropyridothienopyrimidine compounds and methods of use thereof” (Bayer Intellectual Property GmbH, priority 2006, dated 2013).

What all share (assay type): cell-based
In assay [1] the test system is H1975 cells. The assay can be described thus: In vitro tumor cell proliferation assay (Cell Titer-Glo) in H1975 cells. As to conditions: NCI-H1975; H1975 human NSCLC expressing mutant HER1 (L858R,T790M); 72 hours exposure; read-out: IC50, activities in H 1975 cell lines. A digest of the protocol:
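After 72 h compound exposure at 37° C (top 10 uM down to 64 pM, 0.1% DMSO), viability of EGFR L858R/T790M-mutant H1975 cells was read as ATP luminescence.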
A general note: In ATP-based viability assays light output follows the ATP content of the culture.

Assay [2] has as its system N87. The assay can be described thus: In vitro tumor cell proliferation assay (Cell Titer-Glo) in N87 cells. Particulars: N87 human gastric carcinoma overexpressing HER2 and HER1; 72 hours exposure; read-out: IC50, activities in N87 cell lines. The gist of the method:
(§1)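 Viability after 72 h drug exposure at 37 °C was read as CellTiter-Glo ATP luminescence, giving IC50. Cells (2.5×10^3/well, RPMI + 10% FBS) were compound-treated one day post-seeding, 0.1% DMSO final: A431 overexpresses HER1, N87 overexpresses HER2 and HER1.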

Assay [3] deals with A431 cells. As to the kind of experiment: In vitro tumor cell proliferation assay (Cell Titer-Glo) in A431 cells. Particulars: Homo sapiens, A-431, 72 h, A431 human epidermoid carcinoma overexpressing HER1; 72 hours exposure; read-out: IC50, activities in A431 cell lines. A digest of the protocol:
as §1

What is called IC50 is the midpoint of a concentration-inhibition curve. As to `CN(C/C=C/C(=O)N1CCc2c(sc3ncnc(Nc4ccc(F)c(Cl)c4)c23)C1)C1CCCCC1` [Example 54, N-(3-chloro-4-fluorophenyl)-7-{(2E)-4-[cyclohexyl(methyl)amino]but-2-enoyl}-5,6,7,8-tetrahydropyrido [4′,3′:4,5]thieno[2,3-d]pyrimidin-4-amine], the IC50 in assay [1] was 200 to 1000 nM; in assay [2] it was below 200 nM; in assay [3] it was 200 to 1000 nM.

With `O=C(/C=C/CN1CCCCC1)N1CCc2c(sc3ncnc(Nc4ccc(OCc5cccc(F)c5)c(Cl)c4)c23)C1` [Example 19, N-{3-chloro-4-[(3-fluorobenzyl)oxy]phenyl}-7-[(2E)-4-piperidin-1-ylbut-2-enoyl]-5,6,7,8-tetrahydropyrido[4′,3′: 4,5]thieno[2,3-d]pyrimidin-4-amine], the IC50 is 1000 to 10000 nM in assay [1], below 200 nM in assay [2] and below 200 nM in assay [3].

On to `CCN(CC)C/C=C/C(=O)N1CCc2c(sc3ncnc(Nc4ccc5c(ccn5Cc5cccc(F)c5)c4)c23)C1` [Example 100, 7-[(2E)-4-(diethylamino)but-2-enoyl]-N-[1-(3-fluorobenzyl)-1H-indol-5-yl]-5,6,7,8-tetrahydropyrido [4′,3′:4,5]thieno[2,3-d]pyrimidin-4-amine], for which the results for the half-maximal inhibitory concentration (IC50) in assay [1], in assay [2] and in assay [3] were 200 to 1000 nM, below 200 nM and 200 to 1000 nM, respectively.

With `O=C(/C=C/CN1CCOCC1)N1CCc2c(sc3ncnc(Nc4ccc5c(cnn5Cc5ccccn5)c4)c23)C1` [Example 113, 7-[(2E)-4-morpholin-4-ylbut-2-enoyl]-N-[1-(pyridin-2-ylmethyl)-1H-indazol-5-yl]-5,6,7,8-tetrahydropyrido [4′,3′:4,5]thieno[2,3-d]pyrimidin-4-amine], the IC50 in assay [1] is 200 to 1000 nM; in assay [2], below 200 nM; in assay [3], 200 to 1000 nM.

In the case of `CN(C)C/C=C/C(=O)N1CCc2c(sc3ncnc(Nc4cc(Cl)cc(Cl)c4)c23)C1` [Example 174, N-(3,5-dichlorophenyl)-7-[(2E)-4-(dimethylamino)but-2-enoyl]-5,6,7,8-tetrahydropyrido [4′,3′:4,5]thieno[2,3-d]pyrimidin-4-amine], the IC50 in assay [1] is 1000 to 10000 nM; in assay [2], below 200 nM; in assay [3], 1000 to 10000 nM.

For `O=C(/C=C/CN1CCOCC1)N1CCc2c(sc3ncnc(Nc4ccc(OCc5cccc(F)c5)c(Cl)c4)c23)C1` [Example 10, N-{3-chloro-4-[(3-fluorobenzyl)oxy]phenyl}-7-[(2E)-4-morpholin-4-ylbut-2-enoyl]-5,6,7,8-tetrahydropyrido[4′,3′:4,5]thieno[2,3-d]pyrimidin-4-amine], the IC50 in assay [1] is 1000 to 10000 nM; in assay [2], below 200 nM; in assay [3] it was below 200 nM.

As for `O=C(/C=C/CN1CCCCC1)N1CCc2c(sc3ncnc(Nc4ccc(F)c(Cl)c4)c23)C1` [Example 12, N-(3-chloro-4-fluorophenyl)-7-[(2E)-4-piperidin-1-ylbut-2-enoyl]-5,6,7,8-tetrahydropyrido[4′,3′:4,5]thieno[2,3-d]pyrimidin-4-amine], the IC50 was 200 to 1000 nM in assay [1], below 200 nM in assay [2] and below 200 nM in assay [3].

In the case of `O=C(/C=C/CCN1CCCC1)N1CCc2c(sc3ncnc(Nc4ccc(F)c(Cl)c4)c23)C1` [Example 152, N-(3-chloro-4-fluorophenyl)-7-[(2E)-5-pyrrolidin-1-ylpent-2-enoyl]-5,6,7,8-tetrahydropyrido [4′,3′:4,5]thieno[2,3-d]pyrimidin-4-amine], the results for the IC50 in assay [1], in assay [2] and in assay [3] were 1000 to 10000 nM, below 200 nM and 1000 to 10000 nM, respectively.

Consider `CC(C)N(C)C/C=C/C(=O)N1CCc2c(sc3ncnc(Nc4ccc(OCc5ccccn5)c(Cl)c4)c23)C1` [Example 63, N-[3-chloro-4-(pyridin-2-ylmethoxy)phenyl]-7-{(2E)-4-[isopropyl(methyl)amino]but-2-enoyl}-5,6,7,8-tetrahydropyrido [4′,3′:4,5]thieno[2,3-d]pyrimidin-4-amine], for which the IC50 in assay [1] is 200 to 1000 nM; in assay [2] it was below 200 nM; in assay [3] it was 200 to 1000 nM.

Consider `CC(C)N(C/C=C/C(=O)N1CCc2c(sc3ncnc(Nc4ccc(Cl)c(Cl)c4)c23)C1)C(C)C` [Example 209, N-(3,4-dichlorophenyl)-7-[(2E)-4-(diisopropylamino)but-2-enoyl]-5,6,7,8-tetrahydropyrido [4′,3′:4,5]thieno[2,3-d]pyrimidin-4-amine], for which the IC50 in assay [1] was 200 to 1000 nM; in assay [2] it was below 200 nM; in assay [3], 200 to 1000 nM.

Turning to `O=C(/C=C/CN1CCCCC1)N1CCc2c(sc3ncnc(Nc4cccc(Br)c4)c23)C1` [Example 196, N-(3-bromophenyl)-7-[(2E)-4-piperidin-1-ylbut-2-enoyl]-5,6,7,8-tetrahydropyrido [4′,3′:4,5]thieno[2,3-d]pyrimidin-4-amine], the IC50 in assay [1] is 200 to 1000 nM; in assay [2], below 200 nM; in assay [3] it was below 200 nM.

`CN(C/C=C/C(=O)N1CCc2c(sc3ncnc(Nc4ccc(OCc5ccccn5)c(Cl)c4)c23)C1)C(C)(C)C` [Example 65, 7-{(2E)-4-[tert-butyl(methyl)amino]but-2-enoyl}-N-[3-chloro-4-(pyridin-2-ylmethoxy)phenyl]-5,6,7,8-tetrahydropyrido [4′,3′:4,5]thieno[2,3-d]pyrimidin-4-amine]: the figures for the IC50 in assay [1], in assay [2] and in assay [3] were below 200 nM, below 200 nM and 200 to 1000 nM, respectively.

On to `CC(C)N(C)C/C=C/C(=O)N1CCc2c(sc3ncnc(Nc4ccc(OCc5cnccn5)c(Cl)c4)c23)C1` [Example 82, N-[3-chloro-4-(pyrazin-2-ylmethoxy)phenyl]-7-{(2E)-4-[isopropyl(methyl)amino]but-2-enoyl}-5,6,7,8-tetrahydropyrido [4′3′:4,5]thieno[2,3-d]pyrimidin-4-amine], for which the IC50 was 200 to 1000 nM in assay [1], below 200 nM in assay [2] and 1000 to 10000 nM in assay [3].

Take `COc1cccc(Nc2ncnc3sc4c(c23)CCN(C(=O)/C=C/CN(C)C)C4)c1` [Example 179, 7-[(2E)-4-(dimethylamino)but-2-enoyl]-N-(3-methoxyphenyl)-5,6,7,8-tetrahydropyrido [4′,3′:4,5]thieno[2,3-d]pyrimidin-4-amine]: the figures for the half-inhibitory concentration (IC50) in assay [1], in assay [2] and in assay [3] were 1000 to 10000 nM, below 200 nM and 1000 to 10000 nM, respectively.

Take `CC(C)N(C)C/C=C/C(=O)N1CCc2c(sc3ncnc(Nc4ccc5c(cnn5Cc5ccccc5)c4)c23)C1` [Example 107, N-(1-benzyl-1H-indazol-5-yl)-7-{(2E)-4-[isopropyl(methyl)amino]but-2-enoyl}-5,6,7,8-tetrahydropyrido [4′,3′:4,5]thieno[2,3-d]pyrimidin-4-amine]: the IC50 in assay [1], in assay [2] and in assay [3] was below 200 nM throughout.

With `CC1CCCN1C/C=C/C(=O)N1CCc2c(sc3ncnc(Nc4cccc(Br)c4)c23)C1` (stereo not drawn) [Example 207, N-(3-bromophenyl)-7-[(2E)-4-(2-methylpyrrolidin-1-yl)but-2-enoyl]-5,6,7,8-tetrahydropyrido [4′,3′:4,5]thieno[2,3-d]pyrimidin-4-amine], the values for the IC50 in assay [1], in assay [2] and in assay [3] were 200 to 1000 nM, below 200 nM and 200 to 1000 nM, respectively.

Regarding `C=C(CN1CCOCC1)C(=O)N1CCc2c(sc3ncnc(Nc4ccc(OCc5cccc(F)c5)c(Cl)c4)c23)C1` [Example 146, N-{3-chloro-4-[(3-fluorobenzyl)oxy]phenyl}-7-[2-(morpholin-4-ylmethyl)acryloyl]-5,6,7,8-tetrahydropyrido [4′,3′:4,5]thieno[2,3-d]pyrimidin-4-amine], the 50% inhibitory concentration (IC50) in assay [1] was 1000 to 10000 nM; in assay [2], below 200 nM; in assay [3], 1000 to 10000 nM.

For `CC(C)N(C)C/C=C/C(=O)N1CCc2c(sc3ncnc(Nc4cccc(Br)c4)c23)C1` [Example 189, N-(3-bromophenyl)-7-{(2E)-4-[isopropyl(methyl)amino]but-2-enoyl}-5,6,7,8-tetrahydropyrido [4′,3′:4,5]thieno[2,3-d]pyrimidin-4-amine], the IC50 is 200 to 1000 nM in assay [1], below 200 nM in assay [2] and 200 to 1000 nM in assay [3].

In the case of `O=C(/C=C/CN1CCC(O)CC1)N1CCc2c(sc3ncnc(Nc4ccc(F)c(Cl)c4)c23)C1` [Example 58, 1-[(2E)-4-{4-[(3-chloro-4-fluorophenyl)amino]-5,8-dihydropyrido [4′,3′:4,5]thieno[2,3-d]pyrimidin-7(6H)-yl}-4-oxobut-2-en-1-yl]piperidin-4-ol], the IC50 in assay [1] is 1000 to 10000 nM; in assay [2] it was below 200 nM; in assay [3], 1000 to 10000 nM.

As to `CN(C/C=C/C(=O)N1CCc2c(sc3ncnc(Nc4cccc(Br)c4)c23)C1)C1CCCCC1` [Example 202, N-(3-bromophenyl)-7-{(2E)-4-[cyclohexyl(methyl)amino]but-2-enoyl}-5,6,7,8-tetrahydropyrido [4′,3′:4,5]thieno[2,3-d]pyrimidin-4-amine], the IC50 in assay [1] was 200 to 1000 nM; in assay [2], below 200 nM; in assay [3], 200 to 1000 nM.

Consider `O=C(/C=C/CN1CCc2ccccc21)N1CCc2c(sc3ncnc(Nc4ccc(F)c(Cl)c4)c23)C1` [Example 38, N-(3-chloro-4-fluorophenyl)-7-[(2E)-4-(2,3-dihydro-1H-indol-1-yl)but-2-enoyl]-5,6,7,8-tetrahydropyrido [4′3′:4,5]thieno[2,3-d]pyrimidin-4-amine], for which the 50% inhibitory concentration (IC50) in assay [1] is 1000 to 10000 nM; in assay [2], 200 to 5000 nM; in assay [3], 1000 to 10000 nM.
